Tested on: KM12-luc cells
Assay: Cell proliferation and growth inhibition assay (CCK-8) in KM12-luc
Assay type: cell-based
Details: KM12-Luc, 72 h, KM12-luc cells, treated with test compounds for 72 hrs, CCK-8 viability; read-out: NTRK IC50 in KM12-luc
Protocol: MV-4-11 and H1975 cells were obtained from the American Type Culture Collection and KM12-luc cells were obtained from JCRB Cell Bank. All cell lines were maintained at 37° C. with 5% C02, in media supplemented with 10% fetal bovine serum and penicillin (100 units/mL) and streptomycin (100 μg/mL). MV-4-11 cells were maintained in Iscove's Modified Dubecco's Medium, H1975 cells were cultured with RPMI 1640 media, and KM12-luc cells were maintained in Dulbecco's Modification of Eagle's Medium. CCK-8 reagent was obtained from Yeasen. Cell proliferation was assessed by CCK-8 assay (Yeasen) per the manufacturer's instructions. […] Cell viability was assayed by incubating the cells with CCK-8 reagent for 1-4 hrs. Absorbance was measured at OD450 using the Beckman DTX880. The data was calculated using GraphPad Prism version 6.01. The IC50 values were fitted using a non-linear regression model with a sigmoidal dose response.

| Compound | IC50 [nM] |
| --- | --- |
| Cc1nc2cc(Nc3ncc(Cl)c(-c4cn(C)c5ccccc45)n3)ccc2n1CCN(C)C [Compound 400b, N-(5-chloro-4-(1-methyl-1H-indol-3-yl)pyrimidin-2-yl)-1-(2-(dimethylamino)ethyl)-2-methyl-1H-benzo[d]imidazol-5-amine] | 71.5 |
| CCC(=O)Nc1cc(Nc2nc(-c3c[nH]c4cc(F)ccc34)ncc2C(F)(F)F)ccc1N(CC)CCN(C)C [Compound 330b, N-(2-((2-(dimethylamino)ethyl)(ethyl)amino)-5-((2-(6-fluoro-1H-indol-3-yl)-5-(trifluoromethyl)pyrimidin-4-yl)amino)phenyl)propionamide] | > 3330 |
| CCN(C(=O)CCN(C)C)c1ccc(Nc2ncc(Cl)c(-c3cn(C)c4ccccc34)n2)cc1NC(C)=O [Compound 406, N-(2-acetamido-4-((5-chloro-4-(1-methyl-1H-indol-3-yl)pyrimidin-2-yl)amino)phenyl)-3-(dimethylamino)-N-ethylpropanamid] | 60.1 |
| CN(C)CCN(C)c1ccc(Nc2nc(-c3cn(C)c4ccccc34)c3cc[nH]c3n2)cc1NS(C)(=O)=O [Compound 205c, N-(2-((2-(dimethylamino)ethyl)(methyl)amino)-5-((4-(1-methyl-1H-indol-3-yl)-7H-pyrrolo[2,3-d]pyrimidin-2-yl)amino)phenyl)methanesulfonamide] | 329 |
| COc1cnc(Nc2ccc(N(C)CCN(C)C)c(NCC(F)(F)F)c2)nc1-c1cn(C)c2ccccc12 [Compound 276, N^1-(2-(dimethylamino)ethyl)-N^4-(5-methoxy-4-(1-methyl-1H-indol-3-yl)pyrimidin-2-yl)-N^1-methyl-N^2-(2,2,2-trifluoroethyl)benzene-1,2,4-triamine] | 679 |
| CC(=O)Nc1cc(Nc2ncc(C(F)(F)F)c(-c3c[nH]c4c(F)cccc34)n2)c(F)cc1N(C)CCN(C)C [Compound 340, N-(2-((2-(dimethylamino)ethyl)(methyl)amino)-4-fluoro-5-((4-(7-fluoro-1H-indol-3-yl)-5-(trifluoromethyl)pyrimidin-2-yl)amino)phenyl)acetamide] | 57.4 |
| CC(=O)Nc1cc(Nc2ncc(C(F)(F)F)c(-c3c[nH]c4c(C)cccc34)n2)ccc1N(CCN(C)C)C(C)=O [Compound 363, N-(2-acetamido-4-((4-(7-methyl-1H-indol-3-yl)-5-(trifluoromethyl)pyrimidin-2-yl)amino)phenyl)-N-(2-(dimethylamino)ethyl)acetamide] | 93.4 |
| COc1cccc2c(-c3nc(Nc4ccc(N(CCN(C)C)C(C)=O)c(NC(C)=O)c4)ncc3C(F)(F)F)cn(C)c12 [Compound 386, N-(2-acetamido-4-((4-(7-methoxy-1-methyl-1H-indol-3-yl)-5-(trifluoromethyl)pyrimidin-2-yl)amino)phenyl)-N-(2-(dimethylamino)ethyl)acetamide] | 43.9 |
| CC(=O)Nc1cc(Nc2ncc(C(F)(F)F)c(-c3cn(C)c4c(F)cccc34)n2)ccc1N(CCN(C)C)C(C)=O [Compound 350, N-(2-acetamido-4-((4-(7-fluoro-1-methyl-1H-indol-3-yl)-5-(trifluoromethyl)pyrimidin-2-yl)amino)phenyl)-N-(2-(dimethylamino)ethyl)acetamide] | 126 |
| CNc1cc(Nc2ncc(OC)c(-c3cn(-c4ncc(OC)c(-c5c[nH]c6ccccc56)n4)c4ccccc34)n2)ccc1N(C)CCN(C)C [Compound 273b, N^4-(4-(1-(4-(1H-indol-3-yl)-5-methoxypyrimidin-2-yl)-1H-indol-3-yl)-5-methoxypyrimidin-2-yl)-N^1-(2-(dimethylamino)ethyl)-N^1,N^2-dimethylbenzene-1,2,4-triamine] | 3320 |
| CN(C)CCN(C)c1ccc(Nc2ncc(F)c(-c3cn(C)c4ccccc34)n2)cc1N [Compound 262, N^1-(2-(dimethylamino)ethyl)-N^4-(5-fluoro-4-(1-methyl-1H-indol-3-yl)pyrimidin-2-yl)-N-methylbenzene-1,2,4-triamine] | 966 |
| CNc1cc(Nc2nc(-c3cn(C)c4ccccc34)c3cc[nH]c3n2)ccc1N(C)CCN(C)C [Compound 192, N^1-(2-(dimethylamino)ethyl)-N^1,N^2-dimethyl-N^4-(4-(1-methyl-1H-indol-3-yl)-7H-pyrrolo[2,3-d]pyrimidin-2-yl)benzene-1,2,4-triamine] | 525 |
| COc1cccc2c(-c3nc(Nc4ccc(N(C)CCN(C)C)c(NC(C)=O)c4)ncc3Cl)cn(C)c12 [Compound 434, N-(5-(5-chloro-4-(7-methoxy-1-methyl-1H-indol-3-yl)pyrimidin-2-ylamino)-2-((2-(dimethylamino)ethyl)(methyl)amino)phenyl)acetamide] | 97.1 |
| COc1ccc2c(c1)c(-c1nc(Nc3ccc(N(C)CCN(C)C)c(NC(C)=O)c3)ncc1C(F)(F)F)cn2C [Compound 357, N-(2-((2-(dimethylamino)ethyl)(methyl)amino)-5-((4-(5-methoxy-1-methyl-1H-indol-3-yl) 5-(trifluoromethyl)pyrimidin-2-yl)amino)phenyl)acetamide] | 1080 |
| COc1cnc(-n2cc(-c3nc(Nc4ccc(N(C)CCN(C)C)c(NC(C)=O)c4)ncc3OC)c3ccccc32)nc1-c1c[nH]c2ccccc12 [Compound 272b, N-(5-(4-(1-(4-(1H-indol-3-yl)-5-methoxypyrimidin-2-yl)-1H-indol-3-yl)-5-methoxypyrimidin-2-ylamino)-2-((2-(dimethylamino)ethyl)(methyl)amino)phenyl)acetamide] | 2060 |
| CC(=O)Nc1cc(Nc2ncc(C(F)(F)F)c(-c3c[nH]c4c(F)cccc34)n2)ccc1N(CCN(C)C)C(C)=O [Compound 341, N-(2-acetamido-4-((4-(7-fluoro-1H-indol-3-yl)-5-(trifluoromethyl)pyrimidin-2-yl)amino)phenyl)-N-(2-(dimethylamino)ethyl)acetamide] | 248 |
| CN(C)CCN(C)c1ccc(Nc2nc(Oc3cccc(N)c3)c3cc[nH]c3n2)cc1F [Compound 180, N^4-(4-(3-aminophenoxy)-7H-pyrrolo[2,3-d]pyrimidin-2-yl)-N^1-(2-(dimethylamino)ethyl)-2-fluoro-N1-methylbenzene-1,4-diamine] | 3060 |
| CCC(=O)Nc1cc(Nc2ncc(C(F)(F)F)c(-c3c[nH]c4ccccc34)n2)ccc1N(CC)CCN(C)C [Compound 302, N-(5-((4-(1H-indol-3-yl)-5-(trifluoromethyl)pyrimidin-2-yl)amino)-2-((2-(dimethylamino)ethyl)(ethyl)amino)phenyl)propionamide] | 96.8 |
| CN(C)CCN(C)c1ccc(Nc2ncc(C(F)(F)F)c(-c3cn(C)c4ccc(F)cc34)n2)cc1N [Compound 326, N^1-(2-(dimethylamino)ethyl)-N^4-(4-(5-fluoro-1-methyl-1H-indol-3-yl)-5-(trifluoromethyl)pyrimidin-2-yl)-N^1-methylbenzene-1,2,4-triamine] | 58.2 |
| CC(=O)Nc1cc(Nc2ncc(F)c(-c3cn(-c4ncc(F)c(-c5c[nH]c6ccccc56)n4)c4ccccc34)n2)ccc1N(C)CCN(C)C [Compound 259b, N-(2-((2-(dimethylamino)ethyl)(methyl)amino)-5-((5-fluoro-4-(1-(5-fluoro-4-(1H-indol-3-yl)pyrimidin-2-yl)-1H-indol-3-yl)pyrimidin-2-yl)amino)phenyl)acetamide] | 541 |
| CN(C)CCN(C)c1ccc(Nc2ncc(Cl)c(-c3c[nH]c4c(F)cccc34)n2)cc1N [Compound 411, N^4-(5-chloro-4-(7-fluoro-1H-indol-3-yl)pyrimidin-2-yl)-N^1-(2-(dimethylamino)ethyl)-N^1-methylbenzene-1,2,4-triamine] | 12.8 |
| COc1cccc2c(-c3nc(Nc4ccc(N(CCN(C)C)C(C)=O)c(NC(C)=O)c4)ncc3C(F)(F)F)c[nH]c12 [Compound 379, N-(2-acetamido-4-((4-(7-methoxy-1H-indol-3-yl)-5-(trifluoromethyl)pyrimidin-2-yl)amino)phenyl)-N-(2-(dimethylamino)ethyl)acetamide] | 149 |
| COc1cnc(Nc2ccc(OCCN(C)C)c(N)c2)nc1-c1cn(C)c2c(F)cccc12 [Compound 283, 4-(2-(dimethylamino)ethoxy)-N^1-(4-(7-fluoro-1-methyl-1H-indol-3-yl)-5-methoxypyrimidin-2-yl)benzene-1,3-diamine] | 86.4 |

Same assay, conditions: KM12-Luc, 72 h, read-out: NTRK IC50 in KM12-luc

| Compound | IC50 [nM] |
| --- | --- |
| CC(=O)Nc1cc(Nc2nc(-c3cn(C)c4cc(F)ccc34)c3cc[nH]c3n2)ccc1N(C)CCN(C)C [Compound 232a, N-(2-((2-(dimethylamino)ethyl)(methyl)amino)-5-((4-(6-fluoro-1-methyl-1H-indol-3-yl)-7H-pyrrolo[2,3-d]pyrimidin-2-yl)amino)phenyl)acetamide] | 85.5 |

Same assay, conditions: KM12-luc cells, treated with test compounds for 72 hrs, CCK-8 viability; read-out: NTRK IC50 in KM12-luc

| Compound | IC50 [nM] |
| --- | --- |
| CC(=O)Nc1cccc(Oc2nc(Nc3ccc4c(c3)[N+](C)(C)CCN4C)nc3[nH]ccc23)c1 [Compound 181b, 7-((4-(3-acetamidophenoxy)-7H-pyrrolo[2,3-d]pyrimidin-2-yl)amino)-1,1,4-trimethyl-1,2,3,4-tetrahydroquinoxalin-1-ium] | > 10000 |
| CC(=O)Nc1cc(Nc2nc(-c3cn(C)nc3C)c3cc[nH]c3n2)ccc1N(C)CCN(C)C [Compound 255b, N-(5-(4-(1,3-dimethyl-1H-pyrazol-4-yl)-7H-pyrrolo[2,3-d]pyrimidin-2-ylamino)-2-((2-(dimethylamino)ethyl)(methyl)amino)phenyl)acetamide] | > 10000 |

From patent US20250136576A1, “Heterocyclic Compounds and Uses Thereof” (ACEA Therapeutics, Inc., priority 2021, published 2025)
